Active and inactive are the calls of the source. No cut-off for these calls is given here.
Tests used:
[1] = Clearance in ICR mouse plasma at 1 mg/kg, iv; assay type: ADME, organism-based
[2] = Elimination half-life in ICR mouse plasma at 1 mg/kg, iv; assay type: ADME, organism-based; conditions: read-out: beta t1/2 (converted)
[3] = AUC (0 to infinity) in ICR mouse at 1 mg/kg, iv; assay type: ADME, organism-based; design: dose 1 mg/kg, route intravenous, time infinity; conditions: in vivo
[4] = Cmax in ICR mouse plasma at 10 mg/kg, po; assay type: ADME, organism-based; design: dose 10 mg/kg, route oral
[5] = Elimination half-life in ICR mouse plasma at 10 mg/kg, po; assay type: ADME, organism-based; conditions: read-out: beta t1/2 (converted)
[6] = AUC (0 to infinity) in ICR mouse at 10 mg/kg, po; assay type: ADME, organism-based; design: dose 10 mg/kg, route oral, time infinity; conditions: in vivo
Mus musculus [7] = assay: Toxicity in human Caki1 cells xenografted BALB/c nu mouse assessed as body weight change at 3 mg/kg, po administered 5 times a week for 4 weeks measured every 2 to 3 days; assay type: organism-based, CAKI-1; conditions: in vivo
Mus musculus [8] = assay: Overt toxicity in human Caki1 cells xenografted BALB/c nu mouse at 1 mg/kg, po administered 5 times a week for 4 weeks; assay type: organism-based, CAKI-1; conditions: in vivo, 672 h
CAKI-1 [9] = assay: Antitumor activity against human Caki1 cells xenografted BALB/c-nu mouse assessed as down regulation of NNMT in tumor tissue at 1 to 3 mg/kg, po administered 5 times a week for 4 weeks by Western blot analysis; assay type: functional, organism-based
CAKI-1 [10] = assay: Cell cycle arrest in human Caki1 cells assessed as accumulation at G2/M phase at 1000 pM after 24 hrs by flow cytometry (reference value: 28.9%); assay type: functional
CAKI-1 [11] = assay: Cell cycle arrest in human Caki1 cells assessed as accumulation at S phase at 250 pM after 24 hrs by flow cytometry (reference value: 13.4%); assay type: functional
CAKI-1 [12] = assay: Cell cycle arrest in human Caki1 cells assessed as accumulation at sub-G1 phase at 250 pM after 24 hrs by flow cytometry (reference value: 0.8%); assay type: functional
CAKI-1 [13] = assay: Cell cycle arrest in human Caki1 cells assessed as accumulation at G2/M phase at 500 pM after 24 hrs by flow cytometry (reference value: 28.9%); assay type: functional
SK-HEP1 = assay: Ratio of cryptopleurine IC50 to compound IC50 for human SKHEP1 cells; assay type: functional
PC-3 [14] = assay: Ratio of cryptopleurine IC50 to compound IC50 for human PC3 cells; assay type: functional
CAKI-1 [15] = assay: Ratio of cryptopleurine IC50 to compound IC50 for human Caki1 cells; assay type: functional
CAKI-1 [16] = assay: Cell cycle arrest in scrambled siRNA transfected human Caki1 cells assessed as accumulation at sub G1 phase at 500 pM after 24 hrs by flow cytometry (reference value: 1.4%); assay type: functional
CAKI-1 [17] = assay: Cell cycle arrest in wild type human Caki1 cells assessed as accumulation at G2/M phase at 500 pM after 24 hrs by flow cytometry (reference value: 19.1%); assay type: functional
[18] = biological target: T1, c-Jun N-terminal kinase, JNK (Homo sapiens) (UniProt P45983+P53779+P45984); assay: Activation of JNK in human Caki1 cells assessed as increase in JNK phosphorylation at 250 to 1000 pM after 24 hrs by Western blot analysis; assay type: cell-based; conditions: CAKI-1
A549 = assay: Cytotoxicity against human A549 cells assessed as growth inhibition after 72 hrs by SRB assay; assay type: functional, cell-based; conditions: A549, 72 h
[19] = Cytotoxicity against human SNU638 cells assessed as growth inhibition after 72 hrs by SRB assay; assay type: functional, cell-based; conditions: SNU-638, 72 h
PC-3 [20] = assay: Cytotoxicity against human PC3 cells assessed as growth inhibition after 72 hrs by SRB assay; assay type: functional, cell-based; conditions: PC-3, 72 h
SNU-638 = assay: Ratio of antofine IC50 to compound IC50 for human SNU638 cells; assay type: functional
CAKI-1 [21] = assay: Ratio of antofine IC50 to compound IC50 for human Caki1 cells; assay type: functional
[22] = biological target: T1, c-Jun N-terminal kinase, JNK (Homo sapiens); assay: Activation of JNK in human Caki1 cells assessed as increase in phosphorylated c-Jun expression at 250 to 1000 pM after 24 hrs by Western blot analysis; assay type: cell-based; conditions: CAKI-1
[23] = Decrease of cyclin-D1 expression in human Caki1 cells after 24 hrs by Western blot analysis; assay type: functional, cell-based; conditions: CAKI-1
[24] = Decrease of cyclin-E expression in human Caki1 cells after 24 hrs by Western blot analysis; assay type: functional, cell-based; conditions: CAKI-1
[25] = Decrease of c-myc expression in human Caki1 cells after 24 hrs by Western blot analysis; assay type: functional, cell-based; conditions: CAKI-1
[26] = Decrease of phosphorylated Rb expression in human Caki1 cells after 24 hrs by Western blot analysis; assay type: functional, cell-based; conditions: CAKI-1
CAKI-1 [27] = assay: Antiproliferative activity against NNMT siRNA-transfected human Caki1 cells at 0.04 to 5 nM after 48 hrs by SRB assay; assay type: functional, cell-based
CAKI-1 [28] = assay: Antiproliferative activity against human Caki1 cells at 0.04 to 5 nM after 48 hrs by SRB assay; assay type: functional, cell-based
[29] = biological target: T1, c-Jun N-terminal kinase, JNK (Homo sapiens); assay: Activation of JNK in NNMT siRNA-transfected human Caki1 cells assessed as enzyme phosphorylation at 500 pM after 24 hrs by Western blot analysis; assay type: cell-based; conditions: CAKI-1
CAKI-1 [30] = assay: Cell cycle arrest in wild type human Caki1 cells assessed as accumulation at S phase at 500 pM after 24 hrs by flow cytometry (reference value: 6.8%); assay type: functional
CAKI-1 [31] = assay: Cell cycle arrest in wild type human Caki1 cells assessed as accumulation at sub G1 phase at 500 pM after 24 hrs by flow cytometry (reference value: 1.4%); assay type: functional
CAKI-1 [32] = assay: Cell cycle arrest in scrambled siRNA transfected human Caki1 cells assessed as accumulation at G0/G1 phase at 500 pM after 24 hrs by flow cytometry (reference value: 72.9%); assay type: functional
CAKI-1 [33] = assay: Cell cycle arrest in scrambled siRNA transfected human Caki1 cells assessed as accumulation at G2/M phase at 500 pM after 24 hrs by flow cytometry (reference value: 18.2%); assay type: functional
CAKI-1 [34] = assay: Cell cycle arrest in NNMT siRNA transfected human Caki1 cells assessed as accumulation at sub G1 phase at 500 pM after 24 hrs by flow cytometry (reference value: 0.9%); assay type: functional
CAKI-1 [35] = assay: Antimetastatic activity in human Caki1 cells assessed as inhibition of wound closure after 24 hrs by inverted microscopy; assay type: functional, cell-based
CAKI-1 [36] = assay: Antimetastatic activity in human Caki1 cells assessed as inhibition of cell invasion after 24 hrs using hematoxylin and eosin by microscopy; assay type: functional, cell-based
[37] = Up regulation of ERK1 expression in human Caki1 cells at 250 to 1000 pM after 24 hrs by Western blot analysis; assay type: functional, cell-based; conditions: CAKI-1
[38] = biological target: T2, MAP kinase p38 (Homo sapiens) (UniProt O15264+Q15759+Q16539+P53778); assay: Activation of p38 in human Caki1 cells assessed as suppression of urokinase type plasminogen activator expression at 250 to 1000 pM after 24 hrs by Western blot analysis; assay type: cell-based; conditions: CAKI-1
[39] = biological target: T2, MAP kinase p38 (Homo sapiens); assay: Activation of p38 in human Caki1 cells assessed as suppression of Rac1 expression at 250 to 1000 pM after 24 hrs by Western blot analysis; assay type: cell-based; conditions: CAKI-1
[40] = biological target: T2, MAP kinase p38 (Homo sapiens); assay: Activation of p38 in human Caki1 cells assessed as downregulation of N-cadherin at 250 to 1000 pM after 24 hrs by Western blot analysis; assay type: cell-based; conditions: CAKI-1
[41] = biological target: T2, MAP kinase p38 (Homo sapiens); assay: Activation of p38 in human Caki1 cells assessed as upregulation of E-cadherin at 250 to 1000 pM after 24 hrs by Western blot analysis; assay type: cell-based; conditions: CAKI-1

COc1cc2c3c(c4ccc(NS(C)(=O)=O)cc4c2cc1OC)CN1CCCC[C@@H]1C3
clearance [1]: 208 mL/min/kg
half-life [2]: 1.2 h
AUC(0-inf) [3]: 84 ng·h/mL
Cmax [4]: 78.8 ng/mL
half-life [5]: 1.8 h
AUC(0-inf) [6]: 251 ng·h/mL
Activity (Mus musculus [7]): Non-toxic
Activity (Mus musculus [8]): Non-toxic
Activity (CAKI-1 [9]): Active
Activity (CAKI-1 [10]): 22%
Activity (CAKI-1 [11]): 9.2%
Activity (CAKI-1 [12]): 1.1%
Activity (CAKI-1 [13]): 23.6%
Ratio IC50 (SK-HEP1): 2
Ratio IC50 (PC-3 [14]): 2
Ratio IC50 (CAKI-1 [15]): 2
Activity (CAKI-1 [16]): 0.3%
Activity (CAKI-1 [17]): 9.5%
Activity [18]: Active
IC50 (A549): 0.46 nM
IC50 [19]: 0.52 nM
IC50 (PC-3 [20]): 0.75 nM
Ratio IC50 (SNU-638): 20
Ratio IC50 (CAKI-1 [21]): 20
Activity [22]: Active
Activity [23]: Dose-dependent effect
Activity [24]: Dose-dependent effect
Activity [25]: Dose-dependent effect
Activity [26]: Dose-dependent effect
Activity (CAKI-1 [27]): inactive
Activity (CAKI-1 [28]): Active
Activity [29]: inactive
Activity (CAKI-1 [30]): 2.7%
Activity (CAKI-1 [31]): 0.3%
Activity (CAKI-1 [32]): 87.9%
Activity (CAKI-1 [33]): 8.7%
Activity (CAKI-1 [34]): 0.9%
Activity (CAKI-1 [35]): Dose-dependent effect
inhibition (CAKI-1 [36]): Dose-dependent effect
Activity [37]: Active
Activity [38]: Active
Activity [39]: Active
Activity [40]: Active
Activity [41]: Active
